Reference: patent publication US20250346584A1, “NOVEL KAPPA OPIOID LIGANDS” (The Scripps Research Institute, priority 2012, published 2025)

Biological target: kappa opioid receptor (OPRK1) (Homo sapiens (Human), UniProt P41145)
Experiment: OPRK1 antagonist assay (b-arrestin-2-TEV / b-lactamase reporter cell line, EC80 U-50488 challenge)
Assay type: cell-based
Details: read-out: IC50 nM (% inhib if other than 50%); antagonist mode vs EC80 U-50488; NA = not active at concentrations up to 10 μM

Chain of kappa opioid receptor (OPRK1) (P41145 whole entry): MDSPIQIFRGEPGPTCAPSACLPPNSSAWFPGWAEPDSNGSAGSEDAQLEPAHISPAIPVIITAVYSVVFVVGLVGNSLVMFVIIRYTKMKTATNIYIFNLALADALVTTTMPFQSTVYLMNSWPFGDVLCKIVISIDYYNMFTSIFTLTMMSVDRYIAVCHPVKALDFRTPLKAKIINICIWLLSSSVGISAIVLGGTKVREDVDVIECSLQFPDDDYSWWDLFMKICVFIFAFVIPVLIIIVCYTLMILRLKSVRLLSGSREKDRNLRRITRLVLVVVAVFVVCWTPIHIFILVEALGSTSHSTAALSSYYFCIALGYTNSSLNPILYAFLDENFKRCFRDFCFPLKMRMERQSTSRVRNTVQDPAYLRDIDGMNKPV

| SMILES | IC50 [nM] |
| --- | --- |
| Cc1nc(-c2cc3ccc(F)cc3nc2N2CCC(NC3CCCCC3)CC2)no1 [compound 480] | 8 |
| Cc1ccc2nc(N3CCC(NC4CCC(O)CC4)CC3)c(-c3nc(C)no3)cc2c1 (centres unmarked) [compound 246] | 51 |
| COC1CN(c2nc(C)c(C)cc2-c2nc(C)no2)CCC1NC1CCOCC1 (centres unmarked) [compound 321] | 105 |
| Cc1ccc2nc(N3CCC(NC4CC(C)OC(C)C4)CC3)c(-c3nc(C)no3)cc2c1 (centres unmarked) [compound 274] | 50 |
| CO[C@H]1CN(c2nc3ccc(C)cc3cc2-c2ccc(C)o2)CC[C@H]1NC1CCCCC1 [compound 497] | 48 |
| Cc1noc(-c2cc3ccc(F)cc3nc2N2CCC(NC3CCOCC3)CC2)n1 [compound 528] | 23 |
| COC(=O)c1cc(Br)cnc1N1CCC(OC2CCCC2O)CC1 (centres unmarked) [C51] | > 20000 |
| CO[C@H]1CN(c2nc3ccc(C)cc3cc2-c2nc(C)no2)CC[C@H]1NCC(C)C [compound 529] | 369 |
| CNC(=O)c1cc(Br)cnc1N1CCC(NC2CCCCC2)CC1 [compound 87] | 19000 |
| COC(=O)c1cc(Br)cnc1N1CCC(CNC2CCCCC2)CC1 [compound 31] | 3500 |
| COC(=O)c1cc(Br)cnc1N1CCC(NC2CCC[C@H]2O)CC1 (some centres unmarked) [compound 12] | 765 |
| COC1CN(c2nc3ccc(C)cc3cc2C(=O)N(C)C)CCC1NC1CCCCC1 (centres unmarked) [compound 279] | 96 |
| Cc1ccc2nc(N3CCC(NC4CCC(C)CC4)CC3)c(-c3nc(C)no3)cc2c1 (centres unmarked) [compound 350] | 0.97 |
| Cc1noc(-c2cc3ccccc3nc2N2CCC(NC3CCCCC3C)C(CO)C2)n1 (centres unmarked) [compound 206] | 33 |
| COC(=O)c1cc(Br)cnc1N1CCC(N[C@@H]2CCCC[C@H]2O)CC1 [compound 1] | 231 |
| Cc1nc(-c2cc3cc(F)ccc3nc2N2CCC(N[C@@H]3CCCC[C@H]3O)CC2)no1 [compound 475] | 101 |
| CCOC(=O)c1cc(C#N)c(C)nc1N1CCC(NC2CCCCC2)C(CO)C1 (centres unmarked) [C52] | > 20000 |
| Cc1noc(-c2cc3ccccc3nc2N2CCC(NC3CCCOC3)CC2)n1 (centres unmarked) [compound 235] | 4 |
| Cc1noc(-c2cc3ccccc3nc2N2CCC(NC3CCOC3)CC2)n1 (centres unmarked) [compound 236] | 20 |
| COC(=O)c1cc(Br)cnc1N1CCC(NC2CCCCC2)C(C(=O)OC)C1 (centres unmarked) [compound 113] | 2000 |
| COC(=O)c1cccnc1N1CCC(NC2CCCCC2)C(CO)C1 (centres unmarked) [compound 149] | 5400 |
| CCc1noc(-c2cc3cc(C)ccc3nc2N2CCC(NC3CCCCCC3)C(OC)C2)n1 (centres unmarked) [compound 313] | 1.5 |
| Cc1ccc2nc(N3CCC(NC4CCOCC4)CC3)c(-c3noc(C)n3)cc2c1 [compound 332] | 19 |
| Cc1nc(-c2cc3cc(F)ccc3nc2N2CCC(NC3CCCCC3)CC2)no1 [compound 467] | 431 |
| Cc1ccc2nc(N3CCC(NC4CCCCC4)CC3)c(-c3ccc(C)o3)cc2c1 [compound 488] | 19 |

| SMILES | IC50 [nM] |
| --- | --- |
| COC(=O)c1cc(Br)cnc1N1CCC(NC2C3CC4CC(C3)CC2C4)CC1 (centres unmarked) [compound 11] | 2800 |
| Cc1cc(-c2nc(C3CC3)no2)c(N2CCC(NCC(C)C)CC2)nn1 [compound 509] | 30 |
| COC(=O)c1cc(I)cnc1N1CCC(NC2CCCCC2)C(OC)C1 (centres unmarked) [compound 123] | 11 |
| COC(=O)c1cc(Br)cnc1N1CCC(NC2CC3CCC2(C)C3(C)C)CC1 (centres unmarked) [compound 22] | 10000 |
| COC(=O)c1cc(Br)cnc1N1CCC(NC2CCCCC2)CC1 [compound 7] | 133 |
| CO[C@@H]1CN(c2nnc(C)cc2C(=O)OC(C)C)CC[C@@H]1NC1CCCCC1 [compound 404] | 63 |
| COC(=O)c1cc(Br)cnc1N1CCC(NC2CCOCC2)CC1 [compound 13] | 621 |
| COC(=O)c1cc(Br)cnc1N1CCC(NC2CCCCC2CO)CC1 (centres unmarked) [compound 65] | 2300 |
| CO[C@H]1CN(c2nnc(C)cc2C(=O)OC(C)C)CC[C@H]1NC1CCCCC1 [compound 411] | 10 |
| COC(=O)c1cccnc1N1CCC(NC2CCCCC2C)C(O)C1 (centres unmarked) [compound 53] | 5600 |
| Cc1ccc2nc(N3CCC(NC4CCOCC4)CC3)c(-c3nc(C4CC4)no3)cc2c1 [compound 305] | 17 |
| COC(=O)c1cc(C)nnc1N1CC[C@@H](NC2CCCCC2)[C@H](O)C1 [compound 166] | 32 |
| CCOC(=O)c1cc(C#N)c(C)nc1N1CCC(NC2CCCCC2)C(O)C1 (centres unmarked) [C53] | 13000 |
| CCC1(CO)CN(c2nc3ccccc3cc2-c2nc(C)no2)CCC1NC1CCCCC1 (centres unmarked) [compound 208] | 76 |
| CO[C@H]1CN(c2nc3ccc(C)cc3cc2-c2nc(C)no2)CC[C@H]1NC1CCOCC1 [compound 500] | 423 |
| COC(=O)c1cc(Br)cnc1N1CCC(NC2CCCCCC2)C(C(=O)OC)C1 (centres unmarked) [compound 118] | 661 |
| Cc1ccc2nc(N3CCC(NC4CCCC(O)C4)CC3)c(-c3nc(C)no3)cc2c1 (centres unmarked) [compound 255] | 10 |
| Cc1ccc2nc(N3CCC(NC4CCCOC4)CC3)c(-c3nc(C)no3)cc2c1 (centres unmarked) [compound 247] | 4 |
| Cc1cnc(N2CCC(NC3CCCCC3)CC2)c(-c2ccc(C)o2)c1 [compound 499] | 116 |
| COC(=O)c1cc(C)cnc1N1CCC(NC2CCCCC2)C(CO)C1 (centres unmarked) [compound 109] | 198 |
| Cc1noc(-c2cc3ccc(F)c(C)c3nc2N2CCC(NC3CCCCC3)CC2)n1 [compound 491] | 33 |
| COC(=O)c1cc(Br)cnc1N1CCC(NC2CCCC(O)C2)CC1 (centres unmarked) [compound 10] | 652 |
| Cc1nc(-c2cc3cc(C)c(F)cc3nc2N2CCC(NC3CCCCC3)CC2)no1 [compound 495] | 13 |
| CCOC(=O)c1cc(C)c(C)nc1N1CC[C@@H](NC2CCCCC2)[C@H](O)C1 [compound 153] | 191 |

More lines, now with the values ahead:

| IC50 [nM] | SMILES |
| --- | --- |
| 1920 | COC1CN(c2nc(C)c(C)nc2-c2nc(C)no2)CCC1NC1CCCCC1 (centres unmarked) [compound 390] |
| 187 | Cc1noc(-c2nc3ccccc3nc2N2CCC(NC3CCCC3)C(CO)C2)n1 (centres unmarked) [compound 202] |
| 18 | Cc1noc(-c2cc3ccccc3nc2N2CCC(NC3CCCCC3)CC2)n1 [compound 209] |
| 157 | COC(=O)c1cc(C)c(C)nc1N1CC[C@@H](NC2CCCCC2)[C@H](O)C1 [compound 161] |
| 70 | COC1CN(c2nc3ccccc3cc2-c2ncco2)CCC1NC1CCCCC1 (centres unmarked) [compound 225] |
| 16 | CO[C@H]1CN(c2nc(C)c(C)cc2-c2nc(C)no2)CC[C@H]1NC1CCCCC1 [compound 300] |
| 729 | COC1CN(c2nc3c(cc2-c2nc(C)no2)CCCC3)CCC1NC1CCCCC1 (centres unmarked) [compound 193] |
| 3200 | CN(C)C(=O)c1cc(Br)cnc1N1CC[C@@H](NC2CCCCC2)[C@H](O)C1 [compound 138] |
| 85 | CCOC(=O)c1cc(Br)cnc1N1CCC(NC2CCCCC2)C(OC)C1 (centres unmarked) [compound 146] |
| 2000 | CC(=O)c1cc(Br)cnc1N1CCC(NC2CCCCC2)C(CO)C1 (centres unmarked) [compound 97] |
| 596 | Cc1noc(-c2cc3ccccc3nc2N2CC(NC3CCCCC3)C2)n1 [compound 234] |
| 164 | COC(=O)c1cc(Br)cnc1N1CCC(NC2CCCCC2)C(C)C1 (centres unmarked) [compound 45] |
| 74 | CO[C@@H]1CN(c2nc3c(C)c(F)ccc3cc2-c2nc(C)no2)CC[C@@H]1NC1CCCCC1 [compound 492] |
| 0.5 | COC1CN(c2nc3ccc(C)cc3cc2-c2nc(C)no2)CCC1NC1CCCC1 (centres unmarked) [compound 309] |
| 1200 | Cc1noc(-c2cc(C(F)(F)F)cnc2N2CC[C@@H](NC3CCCCC3)[C@H](O)C2)n1 [compound 173] |
| 17000 | COC1CN(c2ncc(C)cc2-c2ncco2)CCC1NC1CCCCC1 (centres unmarked) [C70] |
| 16700 | COC1CN(c2ncc(C)cc2-c2nccc(C)n2)CCC1NC1CCCCC1 (centres unmarked) [compound 384] |
| 3 | COC1CN(c2nc3ccc(C)cc3cc2-c2nc(C)no2)CCC1NC1CCCCC1 (centres unmarked) [compound 214] |
| 280 | CCC1CN(c2ncc(C)cc2-c2nc(C)no2)CCC1NC1CCCCC1 (centres unmarked) [compound 183] |

| IC50 [nM] | SMILES |
| --- | --- |
| 79 | Cc1cnc(N2CCC(NC3CCCCC3)C(CO)C2)c(-c2ncccn2)c1 (centres unmarked) [compound 245] |
| 146 | Cc1noc(-c2cc(C)c(C)nc2N2CC[C@@H](NC3CCCCC3)[C@H](O)C2)n1 [compound 154] |
| 2100 | OCC1CN(c2ncc(Br)cc2-c2nc(C3CC3)no2)CCC1NC1CCCCC1 (centres unmarked) [compound 151] |
| 22 | Cc1noc(-c2cc3ccccc3nc2N2CC[C@@H](NC3CCCCC3)[C@H](O)C2)n1 [compound 172] |
| 33 | CC(=O)c1cc(Br)cnc1N1CC[C@@H](NC2CCCCC2)[C@H](O)C1 [compound 127] |
| 23 | COC1CN(c2ncc(C)cc2-c2nc(C)no2)CCC1NC1CCCC1 (centres unmarked) [compound 316] |
| 4500 | CC(=O)c1cc(Br)cnc1N1CCC(NC2CCCCC2)C(O)C1 (centres unmarked) [compound 99] |
| 414 | COC1CCCCC1NC1CCN(c2ncc(C)cc2-c2nc(C)no2)CC1CO (centres unmarked) [compound 196] |
| 95 | CO[C@H]1CN(c2nc3ccc(C)cc3nc2-c2nc(C)no2)CC[C@H]1NC1CCCCC1 [compound 519] |
| 1600 | CCc1noc(-c2cc(Br)cnc2N2CC[C@@H](NC3CCCCC3)[C@H](O)C2)n1 [compound 137] |
| 276 | Cc1noc(-c2cc3c(nc2N2CC[C@@H](NC4CCCCC4)[C@H](O)C2)CCC3)n1 [compound 207] |
| 199 | Cc1noc(-c2cc3ccccc3nc2N2CC[C@@H](NC3CCCCC3)[C@H](O)C2)n1 [compound 192] |
| 49 | Cc1noc(-c2cc(Br)cnc2N2CC[C@@H](NC3CCCCC3)[C@H](O)C2)n1 [compound 136] |
| 59 | Cc1noc(-c2cc3cc(F)ccc3nc2N2CC[C@@H](NC3CCCCC3)[C@H](O)C2)n1 [compound 241] |
| 107 | OCC1CN(c2nc3ccccc3cc2-c2ncco2)CCC1NC1CCCCC1 (centres unmarked) [compound 226] |
| 13 | Cc1noc(-c2cc(C)c(C)nc2N2CCC(NC3CCCC3)C(CO)C2)n1 (centres unmarked) [compound 223] |
| 272 | CCc1cnc(N2CCC(NC3CCCCC3)C(O)C2)c(C(=O)OC)c1 (centres unmarked) [compound 133] |
| 631 | Cc1ccc2cc(-c3nc(C)no3)c(N3CCC(NC4CCCCC4O)CC3)nc2c1 (centres unmarked) [compound 256] |
